Data from US20250281509A1, “SEQUENTIAL HORMONE THERAPY TO IMPROVE SURVIVAL AND ENHANCE RESPONSE TO IMMUNE THERAPY IN MEN WITH PROSTATE CANCER” (The Johns Hopkins University, priority 2021, published 2025).
“And” between values parts separate entries of the source, which are not always exact repeats. Identical values can stand only once. Like-named read-outs stand apart in the source and are kept apart here.

Tests used:
LNCaP cells [1] = details: androgen-deprived LNCaP cells, high-dose DHT
ferritin = test: Ferritin level by western blot; format: cell-based, human; details: LNCaP cells, supraphysiological levels
Experimental: (§1) Cell lysates were prepared either in 1× denaturing lysis buffer (Cell Signaling #9803) or non-denaturing lysis buffer (50 mM HEPES pH 7.4, 150 mM NaCl, 5 mM EDTA, 10% glycerol, 1% Nonidet P-40, and supplemented with phosphatase and protease inhibitors). For denaturing gels, lysates were mixed with Laemmli buffer containing β-mercaptoethanol, boiled for 5 mins and stored at −80° C. until use. Native lysates were mixed with native loading buffer (BioRad), and semi-native lysates were mixed with Laemmli buffer without beta-mercaptoethanol and stored at −80° C. without boiling. Native gels were resolved as described previously, Robitaille et al., 2016; denaturing and semi-native gels were resolved on 4-15% precast polyacrylamide gels (BioRad) followed by transfer to PVDF membrane. Membranes were blocked in 5% nonfat milk in wash buffer (Tris-buffered saline+0.1% Tween-20). After blocking, immunoblotting was performed with primary antibodies overnight at 4° C., followed by incubation with HRP-conjugated secondary antibodies for 1 h at room temperature. Blots were analyzed using the chemiluminescence method. Blots were developed using ECL Western blot detection reagent (GE Healthcare) for highly expressed proteins and Super Signal West Femto (Thermo Fisher) reagent for low expression proteins. Each experiment was repeated at least two to three times.

STING = STING dimerization assay (native western blot); format: cell-based, human; details: LNCaP vs LAPC4 cells
Experimental: as §1

CXCL10 = CXCL10 transcript and protein; format: cell-based, human; details: LNCaP vs LAPC4 cells
Experimental: Total RNA was extracted from cells using Trizol reagent (Thermo Fisher) as per manufacturer's instructions. cDNA was synthesized from RNA by reverse transcription using SuperScript IV reverse (Thermo Fisher). Quantitative PCR was performed on samples mixed with SYBR master mix (BioRad) and gene-specific primers using a real-time thermocycler (BioRad). Data analysis was performed using the ΔΔCt method, and fold change (2^^−ΔΔ^Ct) was calculated after double normalization with the housekeeper gene and respective untreated control. Each PCR reaction was run in triplicates.
Cell lysates were prepared either in 1× denaturing lysis buffer (Cell Signaling #9803) or non-denaturing lysis buffer (50 mM HEPES pH 7.4, 150 mM NaCl, 5 mM EDTA, 10% glycerol, 1% Nonidet P-40, and supplemented with phosphatase and protease inhibitors). For denaturing gels, lysates were mixed with Laemmli buffer containing β-mercaptoethanol, boiled for 5 mins and stored at −80° C. until use. […] Blots were analyzed using the chemiluminescence method. […]
The concentration of 17 chemokines, cytokines, and growth factors in culture supernatants of control or R1881 treated LNCaP cells was determined using the Bioplex Pro Human Cytokine 17-plex assay system (Bio-Rad) according to manufacturer's protocol. […] Data was collected on the Bio-Rad BioPlex 200 instrument and analyzed using the Bio-Plex Manager (Bio-Rad Laboratory).

LAPC4 cells = details: androgen-deprived LAPC4 cells, high levels of DHT
autophagy = test: Autophagy induction in PCa cell lines; format: cell-based, human
Experimental: as §1
Cells were plated on 60-mm dishes to obtain 80% confluence on the next day. Cells were transfected with tandem mRFP-GFP fluorescent-tagged LC3 (ptfLC3) (Addgene #21074). 24 h post-transfection, cells were trypsinized and plated on sterile glass-bottom dishes at a 40-50% confluency and treated with androgens. Autophagosomes are labelled as green and red dual positive punctas and autolysosomes appear as red puncta as the green puncta is pH sensitive and quenched by the acidic lysosomal pH. Cells were then imaged using a live cell Zeiss LSM780-FCS Single-point, laser scanning confocal microscope. Images were processed using the ImageJ software. Cells with predominantly yellow RFP/GFP (autophagosome) or red RFP (autolysosome) punctae were counted and analyzed from at least twenty fields. Each experiment had images from at least five random fields and repeated three times.

NIK, p52, RELB = test: Immunoblotting for non-canonical NF-kappaB pathway; format: cell-based, human
Experimental: For denaturing gels, lysates were mixed with Laemmli buffer containing β-mercaptoethanol, boiled for 5 mins and stored at −80° C. until use. Native lysates were mixed with native loading buffer (BioRad), and semi-native lysates were mixed with Laemmli buffer without beta-mercaptoethanol and stored at −80° C. without boiling. […] Membranes were blocked in 5% nonfat milk in wash buffer (Tris-buffered saline+0.1% Tween-20). After blocking, immunoblotting was performed with primary antibodies overnight at 4° C., followed by incubation with HRP-conjugated secondary antibodies for 1 h at room temperature. Blots were analyzed using the chemiluminescence method. Blots were developed using ECL Western blot detection reagent (GE Healthcare) for highly expressed proteins and Super Signal West Femto (Thermo Fisher) reagent for low expression proteins. Each experiment was repeated at least two to three times.

lipid peroxides = test: Lipid peroxide sensor C11-BODIPY; format: cell-based, human; details: LNCaP cells, vs vehicle
LNCaP cells [2] = test: Annexin-V positivity; format: cell-based, human
PARP cleavage = PARP cleavage in prostate cancer cell lines; format: cell-based, human
Experimental: as §1

cytoplasmic DNA = test: Confocal microscopy of cytoplasmic DNA; format: cell-based, human; details: combination of hydroxychloroquine and R1881
Experimental: Cells were grown on sterile coverslips in low density and were treated with R1881 (T) or vehicle control (C). After treatment, media was removed, and cells were fixed and permeabilized using chilled methanol for 10 min in deep-freezer followed by 10 min fixation in 10% natural buffered formalin at room temperature. Post-fixation, cells were blocked overnight in sterile-filtered 5% BSA in PBS at 4° C. Cells were incubated with a primary antibody, followed by a suitable fluorochrome tagged secondary antibody at 4° C. overnight. Both primary and secondary antibodies were diluted with 5% BSA in PBS. Cells were postfixed with 10% NBF for 2-3 min before mounting on a clean glass slide using Vectashield antifade mounting media (Vector Laboratories). Image acquisition was performed on the LSM 700 laser confocal microscope (Zeiss). Experiment was repeated at least three times and images from at least five random fields from each experiment were used for analysis. Images were analyzed using the image processing package Fiji.

AR-V = AR-V expression in VCaP cells exposed to R1881 (FIG. 1B); format: cell-based, human; details: 48-hr exposure
Source text: FIG. 1A and FIG. 1B show (FIG. 1A) Effect of synthetic androgen R1881 or bicalutamide on growth of ADT-resistant LNCaP and VCAP; (FIG. 1B) expression of full-length AR (AR-FL), AR-variants (AR-Vs) using antibody to AR N-terminal domain and AR-V& using AR-V7 specific antibody in the absence or presence of R1881;
Thelen et al., 2013. These AR-V expressing cells are profoundly growth inhibited by high dose levels of androgens, FIG. 1A.

labile iron pool (Fe2+) = test: Measurement of the labile iron pool; format: cell-based, human; details: LNCaP cells, vs vehicle
Experimental: An iron assay kit (Sigma) was used to measure the labile iron pool in control and R1881 treated cells. LNCaP and LAPC4 cells were culture in a 100-mm tissue culture dish and were treated for […] before lysis in the buffer provided with the kit by snap freezing and thawing method. The lysate was cleared by centrifuging at 13000×g, and iron was measured by iron detection reagents supplied in the kit. Iron levels were calculated and normalized by the total protein present in the cell lysate. Levels of Fe^2+ were analyzed in SupraT treated cells and were normalized to vehicle control cells.

CRPC [3] = details: enzalutamide post-abiraterone, pre-chemotherapy setting; cited from earlier work
[4] = system: CRPC progressing on abiraterone; test: TRANSFORMER randomized Phase II study (NCT02286921); format: in vivo, human; details: for PSA50 response: patients crossing from BAT to enzalutamide
Experimental: The TRANSFORMER study (NCT02286921) was a DOD-sponsored randomized Phase II study designed to compare the efficacy of BAT vs. enzalutamide in asymptomatic men with CRPC progressing on abiraterone, FIG. 7A. The study was conducted at 17 academic centers across the U.S. The study was coordinated by the Prostate Cancer Disease Group clinical research team at Johns Hopkins, who performed regulatory oversight, study/site monitoring, and data analyses. From 2015-2018, 195 patients underwent 1:1 randomization to either standard dose enzalutamide (n=101) or BAT (n=94) at 400 mg IM every 28 days. The primary endpoint was clinical/radiographic PFS. At time of progression, patients were given the option to crossover to the alternate therapy. The trial was designed to show a 50% improvement in the primary endpoint for BAT vs. enzalutamide. […] Objective response was 24.4% for BAT and 4.2% for enzalutamide (p=0.067). Best PSA50 was 26.4% for BAT and 25.5% for enzalutamide (p=0.697).
At time of progression, 46 (49%) of patients on the […] crossed over to receive BAT and 34 (33.7%) crossed over from BAT to receive enzalutamide and were available for analysis.

CRPC [5] = test: Post hoc analysis of PSA response to subsequent hormonal therapies post-BAT (pilot study); format: in vivo, human
Experimental: As part of the aforementioned pilot study, a post hoc exploratory analysis on the effect of BAT on subsequent hormonal therapies was performed. […] All of the patients had received at least one anti-androgen prior to starting the study, Table 2. PSA response to secondary hormonal therapy after return to castrate T-levels post-BAT.

CRPC [6] = test: RESTORE Phase II study (NCT02090114); format: in vivo, human; details: re-challenge with the agent patients progressed on before BAT
Source text: The RESTORE study (NCT02090114) was an NIH sponsored Phase II study designed to assess the safety and efficacy of BAT in men (n=30 per cohort) with CRPC progressing on enzalutamide (Cohort A) or abiraterone (Cohort B), FIG. 6A. Shah et al., 2004. The primary endpoint of the first part of the study was to assess PSA response to BAT. Secondary endpoints included objective response, safety, and quality of life. The second part of the study was to determine in BAT could re-sensitize patients to repeat exposure to second line therapy that patients were progressing on prior to receiving BAT. Thus, patients progressing on enzalutamide were re-exposed to enzalutamide after BAT and similarly for abiraterone. Both arms of this study met the primary endpoint. PSA50 Response to BAT was 30% in patient's post-enzalutamide and 18% post-abiraterone, FIG. 6B. Shah et al., 2004. […] Overall duration of response to BAT and duration of response to re-exposure was longer in the post-enzalutamide vs. post-abiraterone cohort. The PSA50 response to re-exposure to enzalutamide was 71% vs. only 21% for patients re-exposed to abiraterone, FIG. 6B. Shah et al., 2004. A third cohort was later added (Cohort C) for men progressing on ADT alone. Overall, 90 men were treated on this study over a 4-year period (2014-2018).

CRPC [7] = details: cited from earlier work
CRPC [8] = details: post-docetaxel setting; cited from earlier work
[9] = system: metastatic castration-resistant prostate cancer; details: cited from earlier work
[10] = initial randomized arms, post-abiraterone
[11] = Enzalutamide Phase III (PREVAIL)

C[C@]12CCC(=O)C[C@@H]1CC[C@@H]1[C@@H]2CC[C@]2(C)[C@@H](O)CC[C@@H]12 [DHT, dihydrotestosterone]
double strand break formation (γH2A.x foci) (LNCaP cells [1]): numerous γH2A.x foci
ferritin levels (ferritin): decreased ferritin levels
STING and MAVS activation (STING): activated STING and MAVS preferentially in LNCaP cells, however, the activation was not as robust as R1881
CXCL10 induction (CXCL10): able to induce CXCL10 (less robustly than R1881) preferentially in LNCaP cells
double strand breaks (γH2A.x foci) (LAPC4 cells): numerous double strand breaks throughout the nucleus
autophagy (autophagy; LAPC4 cells): but not in LAPC4 cells
autophagy (autophagy; LNCaP cells): robustly increased autophagy
RelB and NIK stabilization (NIK, p52, RELB): led to stabilization of RelB and NIK

C[C@]1(O)CC[C@H]2[C@@H]3CCC4=CC(=O)CCC4=C3C=C[C@@]21C [R1881, 17α-methyl-19-nor-δ9,11-testosterone]
lipid peroxides (lipid peroxides): increased
Annexin-V positivity (LNCaP cells [2]): no significant increase in Annexin-V
PARP cleavage (PARP cleavage): none of the prostate cancer cell lines treated with synthetic androgen R1881 had any substantial enhancement of PARP cleavage
cytoplasmic DNA (cytoplasmic DNA; LAPC4 cells): did not show any cytoplasmic DNA
cytoplasmic DNA (cytoplasmic DNA; LNCaP cells): marked localization of cytoplasmic DNA
cytoplasmic DNA (cytoplasmic DNA; VCaP cells): fewer cytoplasmic DNA puncta
AR-V expression (AR-V): Complete loss of AR-V expression
labile iron pool (labile iron pool (Fe2+)): increased
basal autophagy (autophagy; LAPC4 and 22Rv1 cells): remained largely unaffected
autophagy (autophagy; LNCaP and VCaP cells): notably induces autophagy

CNC(=O)c1ccc(N2C(=S)N(c3ccc(C#N)c(C(F)(F)F)c3)C(=O)C2(C)C)cc1F [enzalutamide]
median rPFS (CRPC [3]): ≤ 6 months
Objective response ([4]; enzalutamide post-BAT patients): 28.6%
Time to PSA progression ([4]; immediately post-abiraterone): 3.8 months
increase in time to PSA progression, post-BAT vs post-abiraterone ([4]; in vivo): ~3 fold
overall survival ([4]; in vivo): 28 months
Best PSA50 [4, 10]: 25.5%
Objective response [4, 10]: 4.2%
Best PSA50 ([4]; initial randomized arms, post-abiraterone, listed as Enza): 25%
clinical/radiographic PFS ([4]; initial randomized arms, p=0.2267): 5.72 m
PSA50 response [4]: 72.7%
PSA50 response ([4]; listed as Enza): 78%
Time to PSA progression ([4]; post-BAT): 10.9 months
Time to PSA progression ([4]; post-BAT, listed as Enza): 11 months
patients with a PSA decline on second line therapy (CRPC [5]; after return to castrate testosterone levels post-BAT): 4/4
Maximum PSA decline upon secondary HT initiation (%) (CRPC [5]; per subject, secondary HT received post-study after return to castrate T-levels post-BAT): −30.4% and −99.5% and −78.3% and −53.2%
patients with >50% PSA decline on second line therapy (CRPC [5]; post-BAT): 3/4
PSA decline upon re-challenge (CRPC [5]; subjects who had previously progressed on the same agent): 53.2%
PSA50 response to re-exposure post-BAT (CRPC [6]): 71%
>50% decline PSA (%) (CRPC [7]; [11]): 78%
Objective Response (%) (CRPC [7]; [11]): 59%
PSA PFS (CRPC [7]; [11]): 11.2
TTP (m) (CRPC [7]; [11]): 20 m
hazard ratio, overall survival (CRPC [7]; enzalutamide vs placebo, 95% CI 0.60 to 0.84): 0.71
median overall survival (CRPC [7]; pre-chemotherapy setting, placebo 30.2 months): 32.4 months
improvement in survival (CRPC [8]): approximately 5 months
PFS (median), clinical/radiographic ([9]; AR-V7-negative patients): 6.1 months
PSA response rate ([9]; AR-V7-negative patients): 52.6%
PSA-PFS (median) ([9]; AR-V7-negative patients): 5.9 months
PFS (median), clinical/radiographic ([9]; AR-V7-positive patients): 2.1 months
PSA response rate ([9]; AR-V7-positive patients): 0%
PSA-PFS (median) ([9]; AR-V7-positive patients): 1.4 months
